In assay [1] the target is T1, hAT1R (Homo sapiens, UniProt P30556).
T1 sequence (P30556 1-359): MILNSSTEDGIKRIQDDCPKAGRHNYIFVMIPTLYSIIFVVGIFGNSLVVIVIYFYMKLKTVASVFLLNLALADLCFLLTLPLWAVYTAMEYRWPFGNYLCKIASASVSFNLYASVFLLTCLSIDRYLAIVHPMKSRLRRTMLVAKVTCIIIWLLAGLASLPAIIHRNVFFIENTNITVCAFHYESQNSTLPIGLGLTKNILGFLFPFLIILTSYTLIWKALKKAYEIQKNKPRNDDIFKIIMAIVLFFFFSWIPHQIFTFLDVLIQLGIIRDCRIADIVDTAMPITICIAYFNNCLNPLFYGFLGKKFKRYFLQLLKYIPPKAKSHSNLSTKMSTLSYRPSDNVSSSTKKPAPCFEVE
The assay is described as follows: FLIPR calcium flux assay, Part I: agonist activity. Format: cell-based. The settings on record: read-out: hAT1R Agonist Efficacy Agonist (%) Ave. As to the method: (§1) AT1 receptor (AT1R) agonists increase intracellular flux of calcium ions. AT1R antagonists can reduce the agonist effect. […] Compounds were first tested for agonism (Part I) followed by addition of the AT1R agonist angiotensin II to test for antagonist activity (Part II). This assay used a stable hAT1R expressing cell line (ChanTest hAT1R; ChanTest Corp A628). Intracellular flux of calcium in response to agonist was measured through real-time measurement of fluorescence induced through the interaction of Ca2+ (released from intracellular stores) and calcium-sensitive dye. In Part I, cells were exposed to varying concentrations of test compounds and immediately measured for agonist activity (EC50 and Efficacy).
(§2) ChanTest hAT1R stable cells were maintained in Ham's F12 containing 10% (v/v) heat inactivated fetal bovine serum (FBS-HI), 4 mM Glutamax, 1% NEAA, 50 ng/mL plasmocin, 400 μg/mL G418 at 37° C. under 5% CO2 in a humidified atmosphere.
(§3) For FLIPR assay, ChanTest hAT1R cells were trypsinized with 6 ml of Trypsin EDTA solution and harvested in phenol-red free DMEM containing 10% FBS-HI, 4 mM Glutamax and counted, spun down and resuspended in the same medium. The cell suspension was added to the wells of 384-well black PDL clear bottom plates at 2.5×10^4 cells/well, 20 μl/well.
(§4) Preparation of Loading Buffer:
(§5) • Loading Buffer: 1 vial of Calcium 5 Bulk Assay reagent was dissolved in 100 ml of 1× HBSS-20 mM Hepes buffer. • Probenecid was resuspended at 1 M in 1 M NaOH. Once the probenecid had gone into solution, an equal volume of H2O was added to make a solution of 500 mM followed by a 1:100 dilution in the Loading Buffer for a working concentration of 5 mM. The pH was adjusted to 7.4 using 1 M NaOH. Loading the Cells with Loading Buffer • Cell plates were removed from the incubator and 25 μl of Loading Buffer containing probenecid (5 mM) added to each well. • Plates were incubated for 1 hour at 37° C. under 5% CO2 in a humidified atmosphere. […] The remaining steps of the assay were carried forward by FLIPR Tetra. A baseline reading was taken at 1-second (s) intervals for 10 s followed by the addition of 5 μl of 10× compounds. The compound-induced fluorescence signal was then measured for 3 minutes with readings taken at 1-s intervals. • The cell plate was removed from the FLIPR and set aside for an additional 17 minutes. • The cell plate was then transferred back to the FLIPR Tetra, along with the 384 well Angiotensin II agonist dilution plate. A baseline reading was taken at 1-second (s) intervals for 10 seconds, followed by the addition of 5.5 μl of 10× Angiotensin II agonist. The agonist-induced fluorescence signal was then measured for 3 minutes with readings taken at 1-s intervals. • Overall, each well in the FLIPR assay was composed of the following components in a total volume of 55.5 μl:
(§6) Time-course results from the FLIPR Calcium 5 assay were expressed as relative fluorescence light units (RFU). The maximum minus minimum values (Max−Min) were used to quantify the strength of the signal. Mean RFU were calculated from replicate values and plotted on the y-axis versus compound concentration on a logarithmic scale on the x-axis, and a single-binding site, four parameter concentration response model: (MIN+((MAX−MIN)/(1+((EC50/x)^Hill)))), was used to perform non-linear regression analysis, generating concentration response curves. Reported parameters included agonist potency EC50 (the concentration causing half-maximal agonist response), antagonist potency IC50 (the concentration causing half-maximal inhibition of the agonist response for antagonist compounds) and efficacy (% MPE: percent of the maximal possible effect).
Background: A change in cytosolic calcium serves as a functional read-out for many receptors and channels.

Assay [2] deals with T1, hAT1R. The assay is described as follows: FLIPR calcium flux assay, Part II: antagonist activity against Angiotensin II. As to hAT1R Antagonist Efficacy Antag (%) Ave: Angiotensin II 10 nM final concentration. Format: cell-based. Particulars: for Emax: read-out: hAT1R Antagonist Efficacy Antag (%) Ave. As for the experimental part:
as §1, §2, §3, §4, §5, §6

Where [3] appears, read: ChanTest hAT1R stable cells, % MPE, percent of the maximal possible effect.
Where [4] appears, read: read-out: hAT1R Antagonist IC50 Ave.

Read-outs that look alike come from different tables or passages of the source. Residues, ends and D or L forms follow the SMILES beside them.

One may read the IC50 as the concentration that inhibits the measured activity by half.

For `CNCC(=O)N[C@@H](CCCNC(=N)N)C(=O)N[C@H](C(=O)N[C@@H](Cc1ccc(O)cc1)C(=O)N[C@@H](Cc1ccc(N)cc1)C(=O)N[C@@H](Cc1c[nH]cn1)C(=O)N1CCC[C@H]1C(=O)N[C@H](Cc1cccc2ccccc12)C(=O)O)C(C)C` [Compound 13, Sar-Arg-Val-Tyr-Aph-His-Pro-(D-1Nal)-OH] (HELM PEPTIDE1{[Sar].R.V.Y.[Nc1ccc(C[C@H](N[*:1])C(=O)[*:2])cc1].H.P.[O=C(O)[C@@H](Cc1cccc2ccccc12)N[*:1]]}$$$$V2.0), the Emax on hAT1R [1] (setting [3]) amounted to 7%; at hAT1R [2] it was 100%. Besides, the IC50 at hAT1R [2] (setting [4]) amounted to 3.2 nM.

`CNCC(=O)N[C@@H](CCCNC(=N)N)C(=O)N[C@H](C(=O)N[C@@H](Cc1ccc(O)cc1)C(=O)N[C@@H](CC1CCCCC1)C(=O)N[C@@H](Cc1c[nH]cn1)C(=O)N1CCC[C@H]1C(=O)N[C@H](Cc1cccc2ccccc12)C(=O)O)C(C)C` [Compound 14, Sar-Arg-Val-Tyr-Cha-His-Pro-(D-1Nal)-OH] (HELM PEPTIDE1{[Sar].R.V.Y.[Cha].H.P.[O=C(O)[C@@H](Cc1cccc2ccccc12)N[*:1]]}$$$$V2.0): the results for the Emax at hAT1R [1] (setting [3]) and at hAT1R [2] were 5% and 100%, respectively. Moreover, the IC50 at hAT1R [2] (setting [4]) came to 8 nM.

For `CNCC(=O)N[C@@H](CCCNC(=N)N)C(=O)N[C@H](C(=O)N[C@@H](Cc1ccc(O)cc1)C(=O)N[C@H](C(=O)N[C@@H](Cc1c[nH]cn1)C(=O)N1CCC[C@H]1C(=O)N[C@H](Cc1cccc2ccccc12)C(=O)O)C1CCCC1)C(C)C` [Compound 15, Sar-Arg-Val-Tyr-Cpg-His-Pro-(D-1Nal)-OH] (HELM PEPTIDE1{[Sar].R.V.Y.[O=C([C@@H](N[*:1])C1CCCC1)[*:2]].H.P.[O=C(O)[C@@H](Cc1cccc2ccccc12)N[*:1]]}$$$$V2.0), the Emax was 6% on hAT1R [1] (setting [3]) and 100% on hAT1R [2]. Also, the IC50 on hAT1R [2] (setting [4]) is 4.6 nM.

Take `CNCC(=O)N[C@@H](CCCNC(=N)N)C(=O)N[C@H](C(=O)N[C@@H](Cc1ccc(O)cc1)C(=O)N[C@@H](Cc1ccccc1)C(=O)N[C@@H](Cc1c[nH]cn1)C(=O)N1CCC[C@H]1C(=O)N[C@H](Cc1cccc2ccccc12)C(=O)O)C(C)C` [Compound 16, Sar-Arg-Val-Tyr-Phe-His-Pro-(D-1Nal)-OH] (HELM PEPTIDE1{[Sar].R.V.Y.F.H.P.[O=C(O)[C@@H](Cc1cccc2ccccc12)N[*:1]]}$$$$V2.0): the Emax on hAT1R [1] (setting [3]) stood at 6%; on hAT1R [2], 99%. The IC50 at hAT1R [2] (setting [4]) is 5 nM.

As to `CNCC(=O)N[C@@H](CCCNC(=N)N)C(=O)N[C@H](C(=O)N[C@@H](Cc1ccc(O)cc1)C(=O)N[C@H](C(=O)N[C@@H](Cc1c[nH]cn1)C(=O)N1CCC[C@H]1C(=O)N[C@H](Cc1cccc2ccccc12)C(=O)O)[C@@H](C)OC)C(C)C` [Compound 17, Sar-Arg-Val-Tyr-Thr(Me)-His-Pro-(D-1Nal)-OH], the Emax at hAT1R [1] was 4%. Besides, at hAT1R [2], the IC50 came out at 6 nM and the Emax was found to be 100%.

Take `CNCC(=O)N[C@@H](CCCNC(=N)N)C(=O)N[C@H](C(=O)N[C@@H](Cc1ccc(O)cc1)C(=O)N[C@H](C(=O)N[C@@H](Cc1c[nH]cn1)C(=O)N1CCC[C@H]1C(=O)N[C@H](Cc1ccccc1Cl)C(=O)O)C1CCCC1)C(C)C` [Compound 18, Sar-Arg-Val-Tyr-Cpg-His-Pro-(D-Phe(2-Cl))—OH] (HELM PEPTIDE1{[Sar].R.V.Y.[O=C([C@@H](N[*:1])C1CCCC1)[*:2]].H.P.[O=C(O)[C@@H](Cc1ccccc1Cl)N[*:1]]}$$$$V2.0): the Emax on hAT1R [1] (setting [3]) stood at 3%; on hAT1R [2], 99%. In addition, the IC50 at hAT1R [2] (setting [4]) came out at 10.1 nM.

Regarding `CNCC(=O)N[C@@H](CCCNC(=N)N)C(=O)N[C@H](C(=O)N[C@@H](Cc1ccc(O)cc1)C(=O)N[C@H](C(=O)N[C@@H](Cc1c[nH]cn1)C(=O)N1CCC[C@H]1C(=O)N[C@H](Cc1ccccc1Cl)C(=O)O)C1CCCCC1)C(C)C` [Compound 19, Sar-Arg-Val-Tyr-Chg-His-Pro-(D-Phe(2-Cl))—OH] (HELM PEPTIDE1{[Sar].R.V.Y.[O=C([C@@H](N[*:1])C1CCCCC1)[*:2]].H.P.[O=C(O)[C@@H](Cc1ccccc1Cl)N[*:1]]}$$$$V2.0), the Emax on hAT1R [1] (setting [3]) is 8%; on hAT1R [2], 99%. The IC50 on hAT1R [2] (setting [4]) came to 14.1 nM.

With `CNCC(=O)N[C@@H](CCCNC(=N)N)C(=O)N[C@H](C(=O)N[C@@H](Cc1ccc(O)cc1)C(=O)N[C@@H](Cc1ccc(N)cc1)C(=O)N[C@@H](Cc1c[nH]cn1)C(=O)N1CCC[C@H]1C(=O)N[C@H](Cc1ccccc1Cl)C(=O)O)C(C)C` [Compound 20, Sar-Arg-Val-Tyr-Aph-His-Pro-(D-Phe(2-Cl))—OH] (HELM PEPTIDE1{[Sar].R.V.Y.[Nc1ccc(C[C@H](N[*:1])C(=O)[*:2])cc1].H.P.[O=C(O)[C@@H](Cc1ccccc1Cl)N[*:1]]}$$$$V2.0), the Emax on hAT1R [1] (setting [3]) was 5%; on hAT1R [2], 99%. At hAT1R [2] (setting [4]), the IC50 was 5.2 nM.

Take `CNCC(=O)N[C@@H](CCCNC(=N)N)C(=O)N[C@H](C(=O)N[C@@H](Cc1ccc(O)cc1)C(=O)N[C@H](C(=O)N[C@@H](Cc1c[nH]cn1)C(=O)N1CCC[C@H]1C(=O)N[C@H](Cc1ccccc1Cl)C(=O)O)[C@@H](C)OC)C(C)C` [Compound 21, Sar-Arg-Val-Tyr-Thr(Me)-His-Pro-(D-Phe(2-Cl))—OH]: the Emax on hAT1R [1] (setting [3]) came out at 2%; on hAT1R [2], 99%. In addition, at hAT1R [2] (setting [4]), the IC50 was found to be 10.6 nM.

Consider `CNCC(=O)N[C@@H](CCCNC(=N)N)C(=O)N[C@H](C(=O)N[C@@H](Cc1ccc(O)cc1)C(=O)N[C@@H](Cc1ccsc1)C(=O)N[C@@H](Cc1c[nH]cn1)C(=O)N1CCC[C@H]1C(=O)N[C@H](Cc1ccccc1Cl)C(=O)O)C(C)C` [Compound 22, Sar-Arg-Val-Tyr-(3-Thi)-His-Pro-(D-Phe(2-Cl))—OH] (HELM PEPTIDE1{[Sar].R.V.Y.[O=C([C@H](Cc1ccsc1)N[*:1])[*:2]].H.P.[O=C(O)[C@@H](Cc1ccccc1Cl)N[*:1]]}$$$$V2.0), for which the values for the Emax on hAT1R [1] (setting [3]) and on hAT1R [2] were 3% and 99%, respectively. The IC50 on hAT1R [2] (setting [4]) was 5 nM.

Regarding `CNCC(=O)N[C@@H](CCCNC(=N)N)C(=O)N[C@H](C(=O)N[C@@H](Cc1ccc(O)cc1)C(=O)N[C@@H](Cc1cccs1)C(=O)N[C@@H](Cc1c[nH]cn1)C(=O)N1CCC[C@H]1C(=O)N[C@H](Cc1ccccc1Cl)C(=O)O)C(C)C` [Compound 23, Sar-Arg-Val-Tyr-(2-Thi)-His-Pro-(D-Phe(2-Cl))—OH] (HELM PEPTIDE1{[Sar].R.V.Y.[O=C([C@H](Cc1cccs1)N[*:1])[*:2]].H.P.[O=C(O)[C@@H](Cc1ccccc1Cl)N[*:1]]}$$$$V2.0), the Emax amounted to 4% on hAT1R [1] (setting [3]) and 98% on hAT1R [2]. Besides, the IC50 on hAT1R [2] (setting [4]) is 5.2 nM.

As for `CNCC(=O)N[C@@H](CCCNC(=N)N)C(=O)N[C@H](C(=O)N[C@@H](Cc1ccc(O)cc1)C(=O)N[C@@H](Cc1cscn1)C(=O)N[C@@H](Cc1c[nH]cn1)C(=O)N1CCC[C@H]1C(=O)N[C@H](Cc1ccccc1Cl)C(=O)O)C(C)C` [Compound 24, Sar-Arg-Val-Tyr-(Ala(4-Thz))-His-Pro-(D-Phe(2-Cl))—OH] (HELM PEPTIDE1{[Sar].R.V.Y.[O=C([C@H](Cc1cscn1)N[*:1])[*:2]].H.P.[O=C(O)[C@@H](Cc1ccccc1Cl)N[*:1]]}$$$$V2.0), the Emax was determined as 4% at hAT1R [1] (setting [3]) and 99% on hAT1R [2]. At hAT1R [2] (setting [4]), the IC50 amounted to 7 nM.

The values are drawn from US10344054B2, “Angiotensin-1-receptor antagonists” (Ferring B.V., priority 2016, dated 2019).
